# In publication PMC3187750, “Functional Analysis of the Cytoskeleton Protein MreB from Chlamydophila pneumoniae” (PLoS ONE, 2011):
# Tests used:
# [1] = target: T1, MreB from C. pneumoniae (chlamydial MreB) (Chlamydia pneumoniae, UniProt A0ABN3YSA6); conditions: 5 µM MreB, 200 µM ATP; polymerizing (5 mM MgCl2, pH 7) and monomeric (no MgCl2, pH 8) conditions
# T1 sequence (A0ABN3YSA6 2-366): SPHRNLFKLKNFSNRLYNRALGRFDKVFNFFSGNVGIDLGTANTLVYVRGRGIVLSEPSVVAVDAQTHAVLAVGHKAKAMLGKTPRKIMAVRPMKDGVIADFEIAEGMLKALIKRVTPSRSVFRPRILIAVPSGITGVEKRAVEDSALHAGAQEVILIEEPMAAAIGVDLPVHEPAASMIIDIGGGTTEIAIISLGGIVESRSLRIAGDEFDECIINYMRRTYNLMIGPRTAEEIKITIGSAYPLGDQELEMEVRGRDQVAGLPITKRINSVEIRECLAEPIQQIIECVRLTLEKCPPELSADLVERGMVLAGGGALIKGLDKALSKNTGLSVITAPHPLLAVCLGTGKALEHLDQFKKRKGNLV
# [2] = target: T1, MreB from C. pneumoniae (chlamydial MreB); assay: light scattering polymerization assay; type: biochemical; design: pET-21b, EcoRI/XhoI, C-terminal His6 tag kept; expressed in E. coli BL21(DE3); Ni-NTA purified; conditions: standard polymerization conditions (5 µM MreB, 5 mM MgCl2, pH 7, 20 °C)
Structure (SMILES),"phosphate release, molybdate-malachite green assay [1]",light scattering polymerization assay [2]
Nc1ncnc2c1ncn2[C@@H]1O[C@H](COP(=O)(O)OP(=O)(O)OP(=O)(O)O)[C@@H](O)[C@H]1O [ATP],The C345A mutant and wild-type MreB proteins hydrolyzed ATP without marked differences,–
Nc1nc2c(ncn2[C@@H]2O[C@H](COP(=O)(O)OP(=O)(O)OP(=O)(O)O)[C@@H](O)[C@H]2O)c(=O)[nH]1 [GTP],–,"In the presence of GTP, the kinetics and extent of wild-type MreB polymerization was impaired"
